From US7045648B2, “Compound as cholinesterase inhibitor and its isolation from fungus sporotrichum species” (priority 2002, dated 2006)

Experiments:
[1] = system: mosquito larvae culex quinquifasciatus; assay: Insecticidal activity against mosquito larvae; type: in vivo; conditions: in water (70 ppm); exposed for 24 hrs
Experimental: Yet another embodiment of the present invention, wherein said compound effective against mosquito larvae at an optimum concentration of 70 μg/ml water (70 ppm) when exposed for 24 hrs.
Still another embodiment of the present invention, wherein the insecticidal activity of the compound against mosquito larvae is selected from culex quinquifasciatus.

[2] = target: T1, acetylcholinesterase from erythrocytes (Homo sapiens, UniProt P22303); assay: Erythrocyte acetylcholinesterase inhibition; type: biochemical, rat; conditions: erythrocyte enzyme; read-out: IC50 against acetylcholinesterase from erythrocytes
T1 construct: from tissue; host or cells: erythrocytes
T1 sequence (P22303 32-617 isoform P22303-2 limits assumed): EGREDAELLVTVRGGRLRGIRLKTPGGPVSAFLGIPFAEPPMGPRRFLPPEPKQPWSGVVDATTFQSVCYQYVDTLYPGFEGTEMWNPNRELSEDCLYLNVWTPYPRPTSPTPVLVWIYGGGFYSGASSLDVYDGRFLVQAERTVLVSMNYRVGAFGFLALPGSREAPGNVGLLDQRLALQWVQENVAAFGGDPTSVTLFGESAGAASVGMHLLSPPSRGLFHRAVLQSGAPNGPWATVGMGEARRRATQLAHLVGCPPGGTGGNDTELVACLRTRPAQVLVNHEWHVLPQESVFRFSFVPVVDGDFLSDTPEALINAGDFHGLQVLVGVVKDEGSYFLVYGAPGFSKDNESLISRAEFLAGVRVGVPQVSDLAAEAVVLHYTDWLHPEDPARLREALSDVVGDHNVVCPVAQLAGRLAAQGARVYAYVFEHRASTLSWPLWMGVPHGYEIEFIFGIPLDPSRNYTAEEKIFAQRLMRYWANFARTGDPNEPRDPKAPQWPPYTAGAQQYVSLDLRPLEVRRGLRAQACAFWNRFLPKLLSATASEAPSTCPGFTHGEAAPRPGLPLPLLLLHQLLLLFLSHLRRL

[3] = Solubility in organic solvents; type: physicochemical; conditions: in ethyl acetate, methanol and acetone
[4] = target: T2, rat brain acetylcholinesterase (Rattus norvegicus, UniProt P37136); assay: Rat brain acetylcholinesterase inhibition (Ellman method); type: biochemical; conditions: rat brain enzyme; 15 min pre-incubation at 25° C.; acetyl thiocholine iodide 0.5 mM; pH 7.4; read-out: IC50 against rat brain AchE
T2 construct: from tissue; host or cells: rat brain
T2 sequence (P37136 32-614): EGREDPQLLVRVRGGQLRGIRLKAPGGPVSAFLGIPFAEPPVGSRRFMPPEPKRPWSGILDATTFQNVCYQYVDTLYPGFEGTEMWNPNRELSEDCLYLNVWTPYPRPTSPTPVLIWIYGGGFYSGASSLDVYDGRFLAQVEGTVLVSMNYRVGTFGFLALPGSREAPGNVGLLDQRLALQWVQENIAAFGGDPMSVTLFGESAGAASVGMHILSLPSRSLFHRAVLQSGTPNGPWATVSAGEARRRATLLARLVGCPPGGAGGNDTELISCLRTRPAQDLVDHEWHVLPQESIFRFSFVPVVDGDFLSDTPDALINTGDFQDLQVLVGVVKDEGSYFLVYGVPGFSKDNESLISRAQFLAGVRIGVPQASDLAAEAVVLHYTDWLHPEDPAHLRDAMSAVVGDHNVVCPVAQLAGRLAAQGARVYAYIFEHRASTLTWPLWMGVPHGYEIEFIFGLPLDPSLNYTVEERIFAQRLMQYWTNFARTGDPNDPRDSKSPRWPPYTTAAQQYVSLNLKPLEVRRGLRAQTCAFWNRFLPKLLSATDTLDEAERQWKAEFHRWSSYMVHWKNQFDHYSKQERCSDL
Experimental: Absorbance change at 412 nm is monitored every 30 seconds for 2 min in an UV-VIS Spectrophotometer. Inhibition is calculated relative to the solvent control. IC50 is determined by regression analysis.

[5] = system: serine esterase of the rat liver serum; assay: Serine esterase inhibition; type: biochemical

SMILES: COc1ccc(C(=O)O)c(C(O)CCCCCCCC(=O)CC(C)O)c1 (centres unmarked) [Sporotricolone, 12-(2′-CARBOXY-5′-METHOXYPHENYL)-2,12-DIHYDROXY-DODECA-4-ONE]
- optimum concentration effective against mosquito larvae [1]: 70 µg/mL
- IC50 [2]: 20 µM
- Solubility [3]: Highly soluble
- IC50 [4]: 20 µM
- inhibition of serine esterase of the rat liver serum [5]: inhibitor
